Measurements taken from paper PMC4444023 (PLoS ONE, 2015).
“And” between values parts separate entries of the source, which are not always exact repeats. Equal values may be shown once. “Also recorded” adds a separate entry of the source.

Columns and labels:
human nSMase2 [1] = target: T1, human nSMase2 (Homo sapiens, UniProt Q9NY59); test: Fluorescence (Amplex red coupled) nSMase2 activity assay; assay type: biochemical; set-up: Full length human nSMase2 cDNA with a C-terminal Flag tag; crude cell lysate used as enzyme
T1 sequence (Q9NY59 1-655): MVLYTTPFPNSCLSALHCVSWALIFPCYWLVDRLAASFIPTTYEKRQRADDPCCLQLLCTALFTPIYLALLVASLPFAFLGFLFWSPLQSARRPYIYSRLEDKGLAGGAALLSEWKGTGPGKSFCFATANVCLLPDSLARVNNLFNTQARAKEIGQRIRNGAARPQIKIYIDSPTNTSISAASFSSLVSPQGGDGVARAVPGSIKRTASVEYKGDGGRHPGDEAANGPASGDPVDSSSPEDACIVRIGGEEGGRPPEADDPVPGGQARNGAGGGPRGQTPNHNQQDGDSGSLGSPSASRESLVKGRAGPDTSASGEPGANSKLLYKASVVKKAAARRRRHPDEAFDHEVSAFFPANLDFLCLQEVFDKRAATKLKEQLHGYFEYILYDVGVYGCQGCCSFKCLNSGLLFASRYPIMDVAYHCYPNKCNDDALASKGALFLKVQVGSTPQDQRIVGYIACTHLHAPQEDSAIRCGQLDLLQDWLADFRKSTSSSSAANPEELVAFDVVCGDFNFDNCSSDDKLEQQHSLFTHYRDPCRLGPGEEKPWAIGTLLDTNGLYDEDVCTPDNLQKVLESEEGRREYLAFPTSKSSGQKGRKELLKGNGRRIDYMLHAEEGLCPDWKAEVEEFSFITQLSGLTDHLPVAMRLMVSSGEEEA
Method: The production of the latter was coupled to a dephosphorylation reaction catalyzed by alkaline phosphatase (4 U/ml) to produce choline, followed by oxidation of choline by choline oxidase (0.1 U/ml) to produce betaine and H2O2, which in the presence of horseradish peroxidase (HRP, 1U/ml) and 50 μM Amplex red, generates the fluorescent molecule resorufin (Life Technologies). Substrate stock solution was prepared in 2% Triton X-100, vortexed and sonicated for 30 min. Reactions were carried out for 1 h at 37°C in 100 mM Tris-HCl pH 7.4, 10 mM MgCl2, 0.2% Triton X-100 and the generation of the fluorescent product was monitored by measuring relative florescence units (RFU) with excitation at 530 nm and emission at 590 nm (Fig 1). This assay was optimized for 384-well format (50 μl total volume per well) based on linearity of the enzymatic activity with respect to time, as well as substrate and enzyme concentrations. […] This fluorescence assay was used for compound screening and IC50 value determinations, based on duplicate eight-point dose response curves.

nSMase = target: nSMase; set-up: method as in PMID 21615386, PMID 17049336; conditions: cited from earlier work; for IC50: Enzyme source: Rat brain
human nSMase2 [2] = target: T1, human nSMase2; test: 14C-SM confirmatory direct activity assay; assay type: biochemical; set-up: Full length human nSMase2 cDNA with a C-terminal Flag tag; host or cells: HEK293, stably transfected; crude cell lysate used as enzyme; conditions: for human nSMase2 inhibitory activity of analog vs cambinol: SAR; for IC50: [14C]-SM direct activity assay, human recombinant enzyme
Method: This assay was dependent on the direct hydrolysis of ^14C-labeled SM (^14C N-methyl groups in the phosphorylcholine) by human nSMase2. Optimization of assay conditions was accomplished according to the methods of Barbone et al.. Briefly, bovine [N-methyl-^14C]-sphingomyelin (specific activity […], Perkin Elmer) and phosphatidylinositol (Avanti Polar Lipids) were evaporated to dryness under a stream of nitrogen and resuspended at an equimolar concentration of 0.1 mM in water with 0.5% Triton X-100 (Sigma). The solution was vortexed for 30 min and then sonicated for 30 min. Assay conditions were as follows: 50 μl total volume per reaction, consisting of 20 μM SM, reaction buffer (100 mM Tris-HCl pH 7.5, 80 mM MgCl2, 0.1% Triton X-100); 10 μl cell lysate containing recombinant human nSMase2 (0.5–1 μg protein/assay) and 5 μl of compound in reaction buffer containing 10% DMSO. After 1 h incubation at 37°C the reaction was terminated by the addition of 30 μl of water and 175 μl of chloroform/methanol (2:1, v:v), followed by vigorous vortexing. Tubes were centrifuged for 5 min at 10,000 xg at room temperature to separate the organic bottom phase containing labeled SM and the aqueous upper phase containing ^14C-labeled-phosphorylcholine. An aliquot (50 μl) of the upper phase was transferred to a vial with 10 ml of scintillant and counted for 2 min on a Beckman LS-6000IC scintillation counter. Enzyme activity was directly proportional to the disintegrations per min (dpm) resulting from the generation of ^14C-phosphorylcholine.

[3] = test system: rat primary hippocampal neurons; test: Hippocampal neuronal survival (Hoechst 33342); assay type: cell-based
Method: All animal procedures were approved by the Johns Hopkins University Animal Care and Use Committee. Primary hippocampal neurons were prepared from day 18 decapitated embryos of Sprague-Dawley rats following previously described methods. Cells were seeded on polyethyleneimine (PEI)-coated slides in 12-well plates and cultured between 14–21 days. […] After 18 h, cells were stained with 50 μg/ml Hoeschst 33342 for 20 min and then fixed with 4% paraformaldehyde for 30 min. The number of living and apoptotic cells was determined by fluorescence microscopy. A minimum of 500 cells were counted per treatment condition. Results were normalized to control untreated cells and were representative of at least two independent experiments conducted in triplicate. Statistical evaluation of the data was done by Student’s t-test.

## COc1cc(O)c(C(=O)O)c(-c2cc(O)c(O)cc2C)c1 [Altenusin, reference compound]
Human nSMase2 [1]; 100 µM
  modulation of enzymatic activity (Fig 3C raw data): 75.4 RFU and 73.8 RFU and 72.1 RFU and 74.7 RFU
Human nSMase2 [1]; 150 μM GW4869, 100 μM manumycin A, altenusin, zoledronic acid
  inhibition of human nSMase2 activity: possible to inhibit enzyme activity; also recorded: inhibition
nSMase
  IC50: 28 µM
  MOI: Non- competitive

## C[S+](C)[O-] [DMSO]
Human nSMase2 [1]; 0.1% DMSO
  human nSMase2 activity: 2703.2500 RFU and 2871.2510 RFU and 2454.0980 RFU and 2595.8260 RFU
Human nSMase2 [1]; 1% DMSO
  human nSMase2 activity: 2256.2870 RFU and 2299.5150 RFU and 2360.8330 RFU and 2629.8220 RFU
Human nSMase2 [1]; 10% DMSO
  human nSMase2 activity: 1706.1510 RFU and 1610.6720 RFU and 1424.4530 RFU and 1442.3390 RFU
Human nSMase2 [1]; DMSO up to 1%
  inhibition of human nSMase2 activity: no significant inhibition

## CC1CC2C(C=CC3CC(O)CC4CC(=O)C(=CC32)C(=O)O4)C1=O (stereo not drawn) [Macquarimicin A]
nSMase
  IC50: 145 µM
  MOI: Non- competitive

## CC[C@@H](C)/C=C(\C)C[C@@H](C)C[C@@H](C)/C=C/C=C/C=C/C(=O)N[C@H](CO)C[C@@]1(O)C(=O)C=C[C@@H]2O[C@@H]21 [Scyphostatin]
nSMase
  MOI: Competitive

## O=c1[nH]c(-c2ccccc2)c(Cc2c(O)ccc3ccccc23)c(=O)[nH]1 [compound 2]
Human nSMase2 [2]; Log [compound] -4.0
  %Inhibition: -11.0% and -13.0%
Human nSMase2 [2]; Log [compound] -5.0
  %Inhibition: -11.0% and -12.0%
Human nSMase2 [2]; Log [compound] -6.0
  %Inhibition: -2.0% and -3.0%
Human nSMase2 [2]; Log [compound] -7.0
  %Inhibition: 3.0% and 0.0%
Human nSMase2 [2]; Log [compound] -9.0
  %Inhibition: 4.0%
Human nSMase2 [2]; Log [compound] -10.0
  %Inhibition: -1.0% and -2.0%
Human nSMase2 [2]
  human nSMase2 inhibitory activity of analog vs cambinol: loss of activity
  IC50: > 100 µM
[3]; 100 ng/ml IL1β 18 h, 10 µM compound
  neuron survival, Mean (normalized to control untreated cells): 79.08
[3]; 100 ng/ml IL1β 18 h, 25 µM compound
  neuron survival, Mean (normalized to control untreated cells): 81.7
[3]; 100 ng/ml TNFα 18 h, 10 µM compound
  neuron survival, Mean (normalized to control untreated cells): 76.55
[3]; 100 ng/ml TNFα 18 h, 25 µM compound
  neuron survival, Mean (normalized to control untreated cells): 81.8

## O=c1nc(SCc2ccccc2)[nH]c(-c2ccccc2)c1Cc1c(O)ccc2ccccc12 [compound 3]
Human nSMase2 [2]
  human nSMase2 inhibitory activity of analog vs cambinol: loss of activity
  IC50: > 50 µM

## O=c1cc(-c2ccccc2)[nH]c(=S)[nH]1 [compound 5]
Human nSMase2 [2]
  IC50: > 50 µM
Human nSMase2 [2]; vs cambinol
  increase in IC50 value: 10 fold
